Assay results: patent publication US20250041363A1, “COMPOSITIONS AND METHODS FOR TREATMENT OF ALCOHOL USE DISORDER AND ALCOHOL-ASSOCIATED LIVER DISEASE” (UNIVERSITY OF LOUISVILLE RESEARCH FOUNDATION, INC., priority 2023, published 2025)

Tests used:
Type in all cases: in vivo, human
AUD patients = test: Pilot study of LGG in AUD patients: heavy drinking markers; conditions: AUD patients treated for 6-months, preliminary results
[1] = test system: patients with moderately severe acute alcohol associated hepatitis (mAH, MELD <21) with heavy alcohol drinking; test: Double-blind placebo-controlled trial of LGG: liver injury, severity and progression markers; conditions: for INR / ABIC / MELD / Creatinine / Albumin / AST:ALT / Total Bilirubin / ALT / AST: LGG arm; for INR: baseline 1.453 ± 0.35; for ABIC: baseline 6.3 ± 1.26; for MELD: baseline 17.42 ± 1.79; for Creatinine: baseline 0.64 ± 0.17; for Albumin: baseline 2.7 ± 0.6; for AST:ALT: baseline 2.74 ± 1.54; for Total Bilirubin: baseline 7.2 ± 4.5; for ALT: baseline 73.7 ± 46.7; for AST: baseline 169.0 ± 88.4
Source text: (§1) We analyzed data from 46 participants in a large NIAAA-funded clinical trial performed at 4 medical centers (DASH Consortium). This investigation was a double-blind placebo-controlled study of patients with moderately severe acute alcohol associated hepatitis (mAH, MELD <21) who had pre-existing/ongoing heavy alcohol drinking, with clinical assessments at multiple time points. Data on demographics, drinking, and liver injury were collected and assessed at baseline (BL), 1-month (1-m), 3-months (3-m), and 6-months (6-m). Alcohol consumption was measured by baseline AUDIT, monthly alcohol use questionnaire; and liver injury was assessed by standard liver injury markers. All patients received standard medical management for liver disease and counseling for AUD in the standard of care protocol.

[2] = test system: patients with moderately severe acute alcohol associated hepatitis (mAH, MELD <21) with heavy alcohol drinking; test: Double-blind placebo-controlled trial of LGG: alcohol consumption (monthly alcohol use questionnaire); conditions: for #Drinks (Weekly): LGG arm, baseline 34.71 ± 21.99
Source text: Conduct a pilot double-blind treatment trial identifying the dual therapeutic role of LGG in patients with comorbid AUD and moderate AH. Evaluate the therapeutic effects of LGG on lowering alcohol consumption over 6 months of treatment compared to placebo. Evaluate the therapeutic outcomes of LGG treatment on liver injury, progression and prognosis compared to placebo. Validate the central role of gut dysfunction in the altered gut-liver and gut-brain response in patients with AUD and moderate AH.
as §1

## Lactobacillus rhamnosus GG [LGG]
AUD patients
  heavy drinking markers: reduction of heavy drinking markers
[1]; 1 month, FIG. 2A
  1 month change in MELD, LGG arm compared to the placebo arm: significantly dropped
[1]; 1 month, FIG. 2C, p=0.005
  1 month change in ABIC score: dropped significantly
[1]; FIG. 2B
  drop in the AST:ALT ratio, LGG arm compared to the placebo arm: significant
[1]; 1 month, n = 17
  INR: 1.32 ± 0.3 Unit Score
  ABIC: 5.84 ± 1.2 Unit Score
  MELD: 13.29 ± 4.34 Unit score
[1]; 1 month, n = 18
  Creatinine: .81 ± 0.5 mg/dL
  Albumin: 3.5 ± 0.8 g/dL
  AST:ALT: 1.99 ± 1.2
  Total Bilirubin: 2.54 ± 1.4 mg/dL
  ALT: 43.6 ± 44.9 U/L
  AST: 71.72 ± 59.9 U/L
[1]; 3 month, n = 17
  Creatinine: 0.90 ± 0.4 mg/dL
  INR: 1.31 ± 0.45 Unit Score
  Albumin: 3.6 ± 0.9 g/dL
  AST:ALT: 1.7 ± 0.82
  ABIC: 5.98 ± 1.5 Unit Score
  Total Bilirubin: 3.82 ± 8.3 mg/dL
  MELD: 12.06 ± 7.73 Unit score
  ALT: 33.39 ± 36.27 U/L
  AST: 58.65 ± 51.9 U/L
[1]; 6 month, n = 15
  Total Bilirubin: 2.8 ± 3.84 mg/dL
  MELD: 12.40 ± 8.4 Unit score
[1]; 6 month, n = 16
  Creatinine: 0.88 ± 0.35 mg/dL
  INR: 1.41 ± 0.69 Unit Score
  Albumin: 4.01 ± 0.94 g/dL
  AST:ALT: 1.65 ± 0.97
  ABIC: 6.08 ± 1.46 Unit Score
  ALT: 38.75 ± 32.48 U/L
  AST: 48.75 ± 25.20 U/L
[1]; LGG treatment, summary
  biomarkers of liver injury progression and severity: significant reduction
[2]; 6-month assessment, compared to placebo
  drinking level reached (social or abstinence level): < 4 drinks/week
[2]; 6-month assessment, p=0.0128
  change in average drinks/week in LGG arm compared to the placebo arm: significant drop
[2]; 6 months of LGG treatment
  heavy drinking levels after treatment: reduced heavy drinking levels to the social drinking or abstinence levels
[2]; 1 month, n = 23
  #Drinks (Weekly): 1.81 ± 3.77
[2]; 3 month, n = 18
  #Drinks (Weekly): 2.83 ± 7.71
[2]; 6 month, n = 16
  #Drinks (Weekly): 0.31 ± 1.01
[2]; over 6 months, p≤0.001 in the LGG group
  lowering of alcohol consumption (average drinking/week) over 6 months within group: significant, with higher significance
[2]; vs four of the 22 placebo, Fisher's exact test p=0.0012, Likelihood ratio=9.0
  patients with reduction of alcohol drinks/week to the level of social drinking criteria: sixteen of the 24
